One test relates to LSD1. The conditions noted are these: cited from earlier work.
The target of another test is human recombinant LSD1 (Homo sapiens, UniProt O60341). Description: Labeling of human recombinant LSD1 after pre-treatment with LSD1 inhibitors. The class given is biochemical.

Structures are written as SMILES.

As to `N[C@@H]1C[C@H]1c1ccccc1` (relative stereo) [TCP, trans-2-phenylcyclopropyl-1-amine], the “reported potency over LSD1” value in the test on LSD1 is 20 to 400 µM.

On to `C=Cc1ccc(C(=O)Nc2ccc([C@@H]3C[C@H]3N)cc2)cc1.Cl` (relative stereo) [compound 12, N-(4-(trans-2-aminocyclopropyl)phenyl)-4-vinyl benzamide hydrochloride], for which the “effect of inhibitor pre-treatment on LSD1 labeling by probe 17” value at human recombinant LSD1 (compound 12 1 mM or TCP 1.5 mM, 30 min pre-incubation, probe 17 40 µM, 2 min UV) was “no reduction in protein labeling”. In addition, on human recombinant LSD1 (compound 12 pre-incubation 30 min, probe 18 10 µM, 2 min), the “effect of inhibitor pre-treatment on LSD1 labeling by probe 18” value is “no clear difference”.

(Values after paper PMC5292237 (Bioorganic & medicinal chemistry, 2016).)
